Laboratory results from ChEMBL document CHEMBL4765442, “Anti-Giardia Drug Discovery: Current Status and Gut Feelings” (J Med Chem, 2020).
pIC50: −log10 of the molar value. In brackets after ≈: the same amount, converted by molar mass. Values belong to the compound of their own block, whether it stands above or below them.

What was measured:
Giardia intestinalis [1] = assay: Antigiardial activity against Giardia intestinalis IMSS:0696:1 incubated for 48 hrs followed by wash out by hemocytometric counting method; format: functional, organism-based; conditions: Giardia duodenalis, IMSS:0696:1, 48 h
Giardia intestinalis [2] = assay: Antigiardial activity against Giardia lamblia incubated for 48 hrs by ATPLite reagent based luminescence assay; format: functional, organism-based; conditions: Giardia duodenalis
Giardia intestinalis [3] = assay: Antigiardial activity against Giardia lamblia 713M3 trophozoites incubated for 3 days by microscopic method; format: functional, Giardia duodenalis; conditions: time 3 day
Giardia intestinalis [4] = assay: Antigiardial activity against Giardia lamblia GS/H7 trophozoites incubated for 3 days by microscopic method; format: functional, Giardia duodenalis; conditions: time 3 day
Giardia intestinalis [5] = assay: Antimicrobial activity against Giardia lamblia BRIS/87/HEPU/713 trophozoites measured after 48 hrs by BacTiter-Glo cell viability assay; format: functional, organism-based; conditions: Giardia duodenalis, BRIS/87/HEPU/713, 48 h
[6] = Selectivity ratio of CC50 for human HeLa cells incubated for 2 days by alamarBlue reagent to IC50 for Giardia lamblia BRIS/87/HEPU/713 measured after 48 hrs by BacTiter-Glo cell viability assay; format: toxicity; conditions: read-out: Ratio CC50/IC50
Giardia intestinalis [7] = assay: Antimicrobial activity against Giardia lamblia BRIS/83/HEPU/106 trophozoites measured after 2 days by BacTiter-Glo cell viability assay; format: functional, organism-based; conditions: Giardia duodenalis, BRIS/83/HEPU/106, 48 h
Giardia intestinalis [8] = assay: Antimicrobial activity against Giardia lamblia 713M3 trophozoites measured after 2 days by BacTiter-Glo cell viability assay; format: functional, organism-based; conditions: Giardia duodenalis, 713M3, 48 h
Giardia intestinalis [9] = assay: Antimicrobial activity against Giardia lamblia WB-M2 trophozoites measured after 2 days by BacTiter-Glo cell viability assay; format: functional, organism-based; conditions: Giardia duodenalis, WB-M2, 48 h
[10] = Selectivity ratio of CC50 for human HeLa cells incubated for 2 days by alamarBlue reagent to IC50 for Giardia lamblia BRIS/83/HEPU/106 measured after 48 hrs by BacTiter-Glo cell viability assay; format: toxicity; conditions: read-out: Ratio CC50/IC50
[11] = Selectivity ratio of CC50 for human HeLa cells incubated for 2 days by alamarBlue reagent to IC50 for Giardia lamblia 713M3 measured after 48 hrs by BacTiter-Glo cell viability assay; format: toxicity; conditions: read-out: Ratio CC50/IC50
[12] = Selectivity ratio of CC50 for human HeLa cells incubated for 2 days by alamarBlue reagent to IC50 for Giardia lamblia WB-M2 measured after 48 hrs by BacTiter-Glo cell viability assay; format: toxicity; conditions: time 2 day, read-out: Ratio CC50/IC50
[13] = Selectivity ratio of EC50 for Giardia lamblia WB-M2 trophozoites to EC50 for Giardia lamblia BRIS/87/HEPU/713 trophozoites; format: functional
[14] = Selectivity ratio of EC50 for Giardia lamblia 713-M3 trophozoites to EC50 for Giardia lamblia BRIS/87/HEPU/713 trophozoites; format: functional
Giardia intestinalis [15] = assay: Antigiardial activity against Giardia intestinalis WB ATCC 30957 incubated for 72 hrs by hemocytometric counting method; format: functional, organism-based; conditions: Giardia duodenalis, WB ATCC 30957, 72 h
[16] = Half-life of the compound; format: physicochemical
Giardia intestinalis [17] = assay: Antigiardial activity against Giardia duodenalis GS/M-83-H7 (ATCC 50581) incubated for 3 days by fluorescence method; format: functional, organism-based; conditions: 72 h
Giardia intestinalis [18] = assay: Antigiardial activity against Giardia duodenalis WB (ATCC 30957) incubated for 3 days by fluorescence method; format: functional, organism-based; conditions: WB ATCC 30957, 72 h
Giardia intestinalis [19] = assay: Antigiardial activity against Giardia duodenalis G1 incubated for 3 days by fluorescence method; format: functional, organism-based; conditions: G1, 72 h
Giardia intestinalis [20] = assay: Antigiardial activity against Giardia duodenalis Ah1 incubated for 3 days by fluorescence method; format: functional, organism-based; conditions: Ah1, 72 h
Giardia intestinalis [21] = assay: Antigiardial activity against Giardia duodenalis Ah2 incubated for 3 days by fluorescence method; format: functional, organism-based; conditions: Ah2, 72 h
Giardia intestinalis [22] = assay: Antigiardial activity against Giardia duodenalis Ac1 incubated for 3 days by fluorescence method; format: functional, organism-based; conditions: Ac1, 72 h
Giardia intestinalis [23] = assay: Antigiardial activity against Giardia duodenalis Ac2 incubated for 3 days by fluorescence method; format: functional, organism-based; conditions: Ac2, 72 h
Giardia intestinalis [24] = assay: Antigiardial activity against Giardia duodenalis Ec1 incubated for 3 days by fluorescence method; format: functional, organism-based; conditions: Ec1, 72 h
Giardia intestinalis [25] = assay: Antigiardial activity against Giardia duodenalis Ec2 incubated for 3 days by fluorescence method; format: functional, organism-based; conditions: Ec2, 72 h
Giardia intestinalis [26] = assay: Antigiardial activity against Giardia lamblia P1 incubated for 48 hrs by haemocytometric counting method; format: functional, organism-based; conditions: Giardia duodenalis, P1, 48 h
Giardia intestinalis [27] = assay: Antigiardial activity against Giardia lamblia WB incubated for 48 hrs by microscopic method; format: functional, organism-based; conditions: Giardia duodenalis
Giardia intestinalis [28] = assay: Antigiardial activity against Giardia lamblia H/7 incubated for 48 hrs by microscopic method; format: functional, organism-based; conditions: Giardia duodenalis, H/7, 48 h
Giardia intestinalis [29] = assay: Antigiardial activity against metronidazole-resistant Giardia duodenalis WB-M3; format: functional
Giardia intestinalis [30] = assay: Antigiardial activity against metronidazole-resistant Giardia duodenalis 106-2ID10; format: functional
Giardia intestinalis [31] = assay: Antigiardial activity against metronidazole-resistant Giardia duodenalis 713-M3; format: functional
Giardia intestinalis [32] = assay: Antigiardial activity against Giardia lamblia WB (ATCC 30957) incubated for 3 days by [3H]thymidine incorporation based assay; format: functional, organism-based; conditions: Giardia duodenalis
Giardia intestinalis [33] = assay: Growth inhibition of Giardia duodenalis isolate 14-03/F7 measured after 24 hrs by resazurin based assay; format: functional, organism-based; conditions: isolate 14-03/F7, 24 h
Giardia intestinalis [34] = assay: Antigiardial activity against Giardia duodenalis BRIS/91/HEPU/1279 incubated for 3 days followed by compound wash-out and measured after 4 days; format: functional; conditions: time 3 day
Giardia intestinalis [35] = assay: Antigiardial activity against Giardia duodenalis BRIS/83/HEPU/106 incubated for 3 days followed by compound wash-out and measured after 4 days; format: functional; conditions: time 3 day
Giardia intestinalis [36] = assay: Antigiardial activity against metronidazole-resistant Giardia duodenalis BRIS/83/HEPU/106-2ID10 incubated for 3 days followed by compound wash-out and measured after 4 days; format: functional; conditions: time 3 day
Giardia intestinalis [37] = assay: Antigiardial activity against metronidazole-resistant Giardia duodenalis WB1B-M3 incubated for 3 days followed by compound wash-out and measured after 4 days; format: functional; conditions: time 3 day
Giardia intestinalis [38] = assay: Antigiardial activity against Giardia intestinalis incubated for 48 hrs; format: functional, organism-based; conditions: Giardia duodenalis

SMILES: CCN(CC)C(=S)SSC(=S)N(CC)CC
pIC50 (Giardia intestinalis [2]): 6.05
MLC (Giardia intestinalis [3]): 0.8 µM (≈ 0.237 µg/mL)
MLC (Giardia intestinalis [4]): 1.5 µM (≈ 0.445 µg/mL)

SMILES: CN(Cc1ccccc1)Cc1cn(CCCCCC(=O)Nc2ncc([N+](=O)[O-])s2)nn1
pIC50 (Giardia intestinalis [5]): 7.00
selectivity ratio at 48 h [6]: > 500
pIC50 (Giardia intestinalis [7]): 7.00
pIC50 (Giardia intestinalis [8]): 7.00
pIC50 (Giardia intestinalis [9]): 5.19
selectivity ratio at 48 h [10]: > 8
selectivity ratio at 48 h [11]: > 8
selectivity ratio at 48 h [12]: > 8
Ratio EC50 [13]: 65
Ratio EC50 [14]: 20

SMILES: CC(=O)Oc1ccccc1C(=O)Nc1ncc([N+](=O)[O-])s1 [NITAZOXANIDE]
half-life [16]: 7.3 h

SMILES: O=C(CCCCCn1cc(C2CC2)nn1)Nc1ncc([N+](=O)[O-])s1
pIC50 (Giardia intestinalis [5]): 7.00
selectivity ratio at 48 h [6]: > 500
pIC50 (Giardia intestinalis [7]): 7.00
pIC50 (Giardia intestinalis [8]): 7.00
pIC50 (Giardia intestinalis [9]): 5.74
selectivity ratio at 48 h [10]: > 27
selectivity ratio at 48 h [11]: > 27
selectivity ratio at 48 h [12]: > 27

SMILES: CCCSc1ccc2nc(NC(=O)OC)[nH]c2c1 [ALBENDAZOLE]
pIC50 (Giardia intestinalis [17]): 7.26
pIC50 (Giardia intestinalis [18]): 7.26
pIC50 (Giardia intestinalis [19]): 7.26
pIC50 (Giardia intestinalis [20]): 7.26
pIC50 (Giardia intestinalis [21]): 7.26
pIC50 (Giardia intestinalis [22]): 7.26
pIC50 (Giardia intestinalis [23]): 7.26
pIC50 (Giardia intestinalis [24]): 7.26
pIC50 (Giardia intestinalis [25]): 7.26
half-life [16]: 8 h

SMILES: COC(=O)Nc1nc2ccc(C(=O)c3ccccc3)cc2[nH]1 [MEBENDAZOLE]
pIC50 (Giardia intestinalis [26]): 7.22
pIC50 (Giardia intestinalis [27]): 7.22
pIC50 (Giardia intestinalis [28]): 7.22
half-life [16]: 2.5 h

SMILES: Cn1c(-c2ccc3c(c2)OCO3)cnc1/C=C/c1ncc([N+](=O)[O-])n1C
MIC (Giardia intestinalis [29]): 1 µM (≈ 0.353 µg/mL)
MIC (Giardia intestinalis [30]): 1 µM (≈ 0.353 µg/mL)
MIC (Giardia intestinalis [31]): 0.5 µM (≈ 0.177 µg/mL)

SMILES: CC(=O)c1ccc(-c2cn(CCn3c([N+](=O)[O-])cnc3/C=C/c3ccco3)nn2)cc1
pIC50 (Giardia intestinalis [5]): 8.52
selectivity ratio at 48 h [6]: > 16800

Continued, in another order:

pIC50 (Giardia intestinalis [1]): 6.30
SMILES: Cc1ncc([N+](=O)[O-])n1CCOC(=O)Nc1ccc(Cl)cc1

pIC50 (Giardia intestinalis [15]): 3.84
SMILES: O=C(/C=C/c1ccc([N+](=O)[O-])o1)N1CCN(c2ccnc3cc(Cl)ccc23)CC1

pIC50 (Giardia intestinalis [1]): 6.30
SMILES: Cc1ncc([N+](=O)[O-])n1CC(C)OC(=O)Nc1ccc(Cl)cc1 (stereo not drawn)

pIC50 (Giardia intestinalis [17]): 6.30
pIC50 (Giardia intestinalis [18]): 6.30
pIC50 (Giardia intestinalis [19]): 6.30
pIC50 (Giardia intestinalis [20]): 6.30
pIC50 (Giardia intestinalis [21]): 6.30
pIC50 (Giardia intestinalis [22]): 6.30
pIC50 (Giardia intestinalis [23]): 6.30
pIC50 (Giardia intestinalis [24]): 6.30
pIC50 (Giardia intestinalis [25]): 6.30
pIC50 (Giardia intestinalis [32]): 6.30
pIC50 (Giardia intestinalis [1]): 5.36
pIC50 (Giardia intestinalis [38]): 6.00
half-life [16]: 6 h
SMILES: Cc1ncc([N+](=O)[O-])n1CCO [METRONIDAZOLE]
pIC50 (Giardia intestinalis [33]): 5.21
MLC (Giardia intestinalis [34]): 50 µM (≈ 8.56 µg/mL)
MLC (Giardia intestinalis [35]): 100 µM (≈ 17.1 µg/mL)
MLC (Giardia intestinalis [36]): >500 µM
MLC (Giardia intestinalis [37]): >500 µM

MIC (Giardia intestinalis [29]): 5 µM (≈ 2.02 µg/mL)
MIC (Giardia intestinalis [30]): 5 µM (≈ 2.02 µg/mL)
MIC (Giardia intestinalis [31]): 10 µM (≈ 4.03 µg/mL)
SMILES: Cc1ccc(C(Br)C(Br)c2ncc([N+](=O)[O-])n2C)cc1 (stereo not drawn)

pIC50 (Giardia intestinalis [1]): 6.30
SMILES: Cc1ncc([N+](=O)[O-])n1CCOC(=O)NC1CCCCC1

pIC50 (Giardia intestinalis [1]): 5.39
SMILES: Cc1ncc([N+](=O)[O-])n1CC(C)O (stereo not drawn) [SECNIDAZOLE]

pIC50 (Giardia intestinalis [17]): 6.52
pIC50 (Giardia intestinalis [18]): 6.52
pIC50 (Giardia intestinalis [19]): 6.52
pIC50 (Giardia intestinalis [20]): 6.52
pIC50 (Giardia intestinalis [21]): 6.52
pIC50 (Giardia intestinalis [22]): 6.52
pIC50 (Giardia intestinalis [23]): 6.52
pIC50 (Giardia intestinalis [24]): 6.52
pIC50 (Giardia intestinalis [25]): 6.52
pIC50 (Giardia intestinalis [32]): 6.52
half-life [16]: 12 h
SMILES: CCS(=O)(=O)CCn1c([N+](=O)[O-])cnc1C [TINIDAZOLE]
